The results in this text go back to ChEMBL document CHEMBL3351688, “Studies on the anticonvulsant activity of 4-alkyl-1,2,4-triazole-3-thiones and their effect on GABAergic system” (Eur J Med Chem, 2014).

A short description of data set [1]: Protective index, ratio of TD50 in ip Swiss mouse dosed intraperitoneally 30 mins before test by Chimney test to anticonvulsant ED50 in Swiss mouse dosed intraperitoneally 30 mins before test by MES test. The data set is classed as ADME, organism-based. As to conditions: in vivo, read-out: Ratio TD50/ED50.
Data set [2] concerns Mus musculus. The data set is described as follows: Anticonvulsant activity in Swiss mouse assessed as protection against seizures administered intraperitoneally 60 mins before test by maximal electroshock seizure test. The data set is classed as functional. The note with it: ip. Background: In the maximal electroshock model the usual endpoint is tonic extension of the hind limbs.

Data set [3] is described as follows: Toxicity in Swiss mouse assessed as effect on motor performance administered intraperitoneally 15 mins before test by Chimney test. The data set is classed as organism-based. The note with it: in vivo, ip.
Data set [4] in a line: Protective index, ratio of TD50 in ip Swiss mouse dosed intraperitoneally 120 mins before test by Chimney test to anticonvulsant ED50 in Swiss mouse dosed intraperitoneally 120 mins before test by MES test. The data set is classed as ADME, organism-based. As to conditions: in vivo, read-out: Ratio TD50/ED50.
Data set [5] in a line: Toxicity in Swiss mouse assessed as effect on motor performance administered intraperitoneally 60 mins before test by Chimney test. The data set is classed as organism-based. The note with it: in vivo, ip.
A short description of data set [6]: Toxicity in Swiss mouse assessed as effect on motor performance administered intraperitoneally 30 mins before test by Chimney test. The data set is classed as organism-based. As to conditions: in vivo, ip.
The test system of data set [7] is Mus musculus. The data set is described as follows: Anticonvulsant activity in Swiss mouse assessed as protection against seizures administered intraperitoneally 120 mins before test by maximal electroshock seizure test. The data set is classed as functional. As to conditions: ip.
The test system of data set [8] is Mus musculus. The data set is described as follows: Anticonvulsant activity in Swiss mouse assessed as protection against seizures at 300 mg/kg, ip administered 30 mins before test by maximal electroshock seizure test. The data set is classed as functional. The note with it: route intraperitoneal.
In data set [9] the test system is Mus musculus. The data set is described as follows: Anticonvulsant activity in Swiss mouse assessed as protection against seizures at 300 mg/kg, ip administered 15 mins before test by maximal electroshock seizure test. As to conditions: route intraperitoneal. The data set is classed as functional.
The nature of data set [10]: Toxicity in Swiss mouse assessed as effect on motor performance administered intraperitoneally 120 mins before test by Chimney test. The data set is classed as organism-based. The note with it: in vivo, ip.
Data set [11] addresses GABA-A receptor; anion channel (Homo sapiens) (UniProt P14867+P47870+P18507+P28472+P48169+Q99928+Q9UN88+P34903+O00591+O14764+Q8N1C3+P18505+P78334+P47869+P31644+Q16445). The data set is described as follows: Displacement of [3H]muscimol form GABAA receptor in rat cerebral cortex assessed as specific radio-ligand binding level at 1 uM incubated for 10 mins by liquid scintillation counting method. The data set is classed as tissue-based. As to conditions: target entry is the homologue from another species. In general terms: Displacement assays read how much labelled ligand stays bound in the presence of the test substance.

Data set [12] deals with Mus musculus. The data set is described as follows: Anticonvulsant activity in Swiss mouse assessed as protection against seizures administered intraperitoneally 15 mins before test by maximal electroshock seizure test. The data set is classed as functional. The note with it: ip.
Data set [13] in a line: Protective index, ratio of TD50 in ip Swiss mouse dosed intraperitoneally 15 mins before test by Chimney test to anticonvulsant ED50 in Swiss mouse dosed intraperitoneally 15 mins before test by MES test. The data set is classed as ADME, organism-based. The note with it: in vivo, read-out: Ratio TD50/ED50.
Data set [14] relates to Mus musculus. The data set is described as follows: Anticonvulsant activity in Swiss mouse assessed as protection against seizures at 300 mg/kg, ip administered 120 mins before test by maximal electroshock seizure test. The data set is classed as functional. As to conditions: route intraperitoneal.
A short description of data set [15]: Protective index, ratio of TD50 in ip Swiss mouse dosed intraperitoneally 60 mins before test by Chimney test to anticonvulsant ED50 in Swiss mouse dosed intraperitoneally 60 mins before test by MES test. The data set is classed as ADME, organism-based. As to conditions: in vivo, read-out: Ratio TD50/ED50.
Data set [16] is filed under the species Rattus norvegicus. The data set is described as follows: Displacement of [3H]flunitrazepam form benzodiazepine receptor in rat cerebral cortex assessed as specific radio-ligand binding level at 1 uM incubated for 20 mins by liquid scintillation counting method. The data set is classed as tissue-based.
Data set [17] deals with Mus musculus. The data set is described as follows: Anticonvulsant activity in Swiss mouse assessed as protection against seizures administered intraperitoneally 30 mins before test by maximal electroshock seizure test. The data set is classed as functional. The note with it: ip.
In data set [18] the test system is Mus musculus. The data set is described as follows: Anticonvulsant activity in Swiss mouse assessed as protection against seizures at 300 mg/kg, ip administered 60 mins before test by maximal electroshock seizure test. The data set is classed as functional. The note with it: route intraperitoneal.

For the compound `CCn1c(Cc2cccc(Cl)c2)n[nH]c1=S`, the selectivity ratio at 0.5 h in [1] is 5.2. For the same compound, the ED50 in data set [2] stood at 69.9 mg/kg; in [7] it was 88.3 mg/kg; in data set [12], 51.1 mg/kg; in data set [17], 54.4 mg/kg. Moreover, in data set [3], the TD50 at 0.25 h turned out to be 297 mg/kg. The selectivity ratio at 2 h in [4] is 3.9. Further, the TD50 at 1 h in [5] stood at 290 mg/kg. Moreover, the TD50 at 0.5 h in [6] amounted to 285 mg/kg. The Activity in data set [8] worked out at 100%; in data set [9] it was 100%; in [11] it was 0%; in data set [14], 100%; in data set [16], 15%; in data set [18] it was 100%. The TD50 at 2 h in data set [10] is 345 mg/kg. Further, the selectivity ratio at 0.25 h in [13] worked out at 5.8. Also, the selectivity ratio at 1 h in data set [15] is 4.1.

What is called ED50 is the dose that gives a 50% effect, or the effect in half of the subjects. For orientation: TD50 means the 50% point of the dose-response relation for the toxic effect studied.
